Measured values published in PubChem BioAssay AID977607 (Broad Institute, 2014).
Active and inactive are the calls of the source.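 The calls were made as follows: active = curve reaches 40% activation over neutral controls at an AC40 no higher than the top valid tested concentration; inconclusive = no clear call, values can overlap the other calls; inactive = signal moving opposite to the expected increase, and the rest.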

System: INS-1E GLuc insulin secretion reporter, luminescence, 2-3 h
Assay: activators of glucose-dependent insulin secretion, dose response, cell-based, INS-1E, Gaussia luciferase, luminescence, cherry-pick, set 2 (AID 977607)

Row | Compound | AC40
1 | COc1ccc(C2=NN(C(=O)c3ccco3)C(c3cccs3)C2)cc1OC (stereo not drawn) | 1.94 µM
2 | Cc1cc(Nc2ccc(Cl)cc2)nc(NCc2ccccc2)n1 | 9.24 µM
3 | COC(=O)c1ccc(C2C(Oc3ccc(OC)cc3)C(=O)N2CCc2ccc(F)cc2)cc1 (stereo not drawn) | 12.6 µM
4 | Cc1ccc2nc(Cl)nc(-c3ccccc3)c2c1 | 12.2 µM
5 | CCCCc1c(-c2cccc(OC)c2)ncn1CCc1ccccc1OC | 11.8 µM
6 | CCCCCCCCN1C(=O)[C@@H](CC(=O)N2CCN(C(=O)c3ccco3)CC2)C[C@@]2(C(=O)OC)C1=C[C@H](C1CCCC1)O[C@@H]2C | 12 µM
7 | O=C(O)c1ccc(-n2nc(-c3ccccc3)c3ccccc3c2=O)cc1 | > 35 µM (inactive)
8 | CCCCCCCOC(=O)c1nc(Cl)c(Cl)c(N)c1Cl | 14.5 µM
9 | CCOC(=O)c1oc2ccccc2c1NC(=O)c1cccs1 | 14 µM
10 | Nc1c(C(=O)Nc2ccc3c(c2)OCCO3)nnn1Cc1ccc(Cl)cc1 | 12.7 µM
11 | COc1ccc(Br)cc1C(=O)Nc1cccc(C)c1 | 11.6 µM
12 | COc1ccc(OC)c(NC(=O)c2cc3c(Cl)nc4ccccc4c3s2)c1 | 10.2 µM
13 | O=C(Nc1ccc(F)cc1)Nc1cc(OCC(F)(F)F)cc(OCC(F)(F)F)c1 | 7.63 µM
14 | CCCNC(=O)c1nnsc1S(=O)c1ccc(Cl)cc1 (stereo not drawn) | 1.06 µM
15 | CCOC(=O)[C@]12Cc3c(cc(OC)c(OC)c3OC)[C@H]1N(C1CCCCC1)C(=O)c1cc(OC)ccc12 | 15.5 µM
16 | Cc1ccc(C)c(OCC(=O)N/N=C/c2c(C)nn(-c3ccccc3)c2Cl)c1C | 3.2 µM
17 | COc1ccc(C2=NN(c3ccc(C(=O)O)cc3)C(c3ccc(OC)c(OC)c3)C2)cc1 (stereo not drawn) | 4.29 µM
18 | O=C(Nc1ccccc1)c1nnsc1S(=O)(=O)c1ccc(Cl)cc1 | 1.21 µM
19 | COc1cc2c(cc1OC)-c1cc(Nc3ccccc3C)nc(=O)n1CC2 | 0.408 µM
20 | CC1CC1C(=O)Nc1cc(C(F)(F)F)ccc1N1CCOCC1 (stereo not drawn) | 1.46 µM
21 | O=c1[nH]nc(-c2ccccc2)c2ccccc12 | 22.5 µM
22 | Cc1cccc(-c2ccc(C3[C@@H]4CN(C(=O)Nc5ccc(C(F)(F)F)cc5)C[C@H]3N4)cc2)c1 (stereo partly drawn) | 1.09 µM

Row | Compound | AC40
23 | Cc1ccc(NC(=O)c2oc3ccc(S(=O)(=O)N4CCOCC4)cc3c2C)cc1C | 15.6 µM
24 | O=C(N/N=C\c1ccc(CNS(=O)(=O)c2ccc(Cl)cc2)o1)C(=O)Nc1ccc(Oc2ccccc2)cc1 | 13.9 µM
25 | Cc1cc(C)nc(NS(=O)(=O)c2ccc(N/C=C/C(=O)c3ccc(Cl)c(Cl)c3)cc2)n1 | 3.7 µM
26 | Cc1ccc(-c2ccc(C3[C@@H]4CN(Cc5cccc(F)c5)C[C@H]3N4)cc2)cc1 (stereo partly drawn) | 3.07 µM
27 | Cc1cc(C)nc(Nc2n[nH]c(COc3ccc4ccccc4c3)n2)n1 | 7.71 µM
28 | COC(=O)C1=C(C)N(Cc2cccc(C(F)(F)F)c2)C(=NCc2ccc(OC)cc2)NC1c1ccc(F)cc1 (stereo not drawn) | 15.5 µM
29 | CC(NC(=O)COC(=O)c1ccccc1Nc1ccccc1)c1ccccc1 (stereo not drawn) | 12.2 µM
30 | COC(=O)C1=C(C)N(Cc2cccc(C(F)(F)F)c2)C(=NCc2ccc(OC)cc2)NC1c1cccc(F)c1 (stereo not drawn) | 10.8 µM
31 | Cc1cc(C)cc(NC(=O)Cc2ccc(-n3cccc3)cc2)c1 | 8.29 µM
32 | CCOC(=O)c1cnc2ccc(Cl)cc2c1Nc1ccc(S(=O)(=O)Nc2ncccn2)cc1 | 3.45 µM
33 | COc1ccc(C#Cc2ccc([C@@H]3[C@H](CO)N4CCCCN(Cc5ccccc5F)C[C@@H]34)cc2)cc1 | 6.53 µM
34 | O=c1[nH][nH]c2c1C(c1ccc(Cl)c(Cl)c1)OC(CCc1ccccc1)C2 (stereo not drawn) | 16.9 µM
35 | CS(=O)(=O)N(Cc1ccc(Cl)cc1)c1ccc(C(=O)NCCC2=CCCCC2)cc1 | 13 µM
36 | COc1ccc(CCNS(=O)(=O)c2cn(C)cn2)cc1OC | 4.84 µM
37 | N#Cc1sc2nc(N3CCCCC3)c3c(c2c1N)CCCC3 | 28.6 µM
38 | Fc1ccccc1/C=N/n1c(C2CCCCC2)n[nH]c1=S | 18.5 µM
39 | CC1(Cc2cc(Cl)ccc2C(F)(F)F)C(=O)Nc2cc(C(F)(F)F)ccc21 (stereo not drawn) | 34 µM
40 | COc1ccc(C2=Nn3c(nnc3-c3ccccc3F)SC2)cc1OCC1CC1 | 1.23 µM
41 | COC(=O)c1sccc1NC(=O)COc1ccc(Cl)cc1Cl | 9.33 µM
42 | CCn1cc(S(=O)(=O)NCCc2ccc(OC)c(OC)c2)cn1 | 3.87 µM
43 | CCC(=NC(C)c1ccccc1)c1c(O)[nH]c(=O)[nH]c1=O (stereo not drawn) | 11.1 µM
44 | COc1ccc(C(=O)NCC(=O)OCC(=O)Nc2ccc(C)c(S(=O)(=O)N(C)C)c2)cc1OC | 1.67 µM

Row | Compound | AC40
45 | COc1ccc(S(=O)(=O)N2CCc3ccccc32)cc1C(=O)Nc1ccc(C(N)=O)cc1 | 16.3 µM
46 | Cc1ccc(C(=O)Oc2ccc(-c3nccc(-c4ccccn4)n3)cc2)cc1 | 3.99 µM
47 | Cc1ccc(S(=O)(=O)N2C[C@@H]3N[C@H](C2)C3c2ccc(/C=C/c3ccccc3)cc2)cc1 (stereo partly drawn) | 7.9 µM
48 | CN(C)S(=O)(=O)c1cccc(-n2sc3ccccc3c2=O)c1 | 4.6 µM
49 | COC(=O)C1=C(C)N(Cc2ccc(C(F)(F)F)cc2)C(=NCc2ccccc2)NC1c1ccc(Cl)cc1 (stereo not drawn) | 8.24 µM
50 | Cc1cc(NC(=O)c2ccccc2F)n(-c2nc3ccccc3[nH]2)n1 | 5.86 µM
51 | O=C(Nc1ccc(Cl)c(Cl)c1)Nc1nc(-c2ccccc2)cs1 | 4.71 µM
52 | COc1ccc(CCN(C)C(=O)COc2cccc(-n3cnnn3)c2)cc1OC | > 35 µM (inactive)
53 | CCCCc1c(Cc2ccccc2)ncn1CCc1ccccc1OC | 14.3 µM
54 | O=C(NCc1ccccn1)c1coc(=O)c(Br)c1 | 2.01 µM
55 | c1ccc(Cn2nnc3c(N4CCc5ccccc54)ncnc32)cc1 | 5.06 µM
56 | COc1cc2c(cc1OC)-c1cc(Nc3ccc(C)cc3)nc(=O)n1CC2 | 11.8 µM
57 | CONc1nc(NC(C)(C)C)nc(OCC#N)n1 | > 35 µM (inactive)
58 | NC(=O)COC(=O)c1ccccc1Oc1ccccc1 | 6.24 µM
59 | Cc1ccc(-c2n[nH]c(=S)n2/N=C/c2c(C)nn(-c3ccccc3)c2C)cc1 | 11.2 µM
60 | O=c1[nH]c(/C=C/c2ccc(OC(F)F)cc2)nc2c1cnn2-c1ccccc1 | 21.6 µM
61 | COC(=O)C1=C(C)N(Cc2cccc(C(F)(F)F)c2)C(=NCc2ccc3c(c2)OCO3)NC1CCc1ccccc1 (stereo not drawn) | 13.1 µM
62 | CC1(C(=O)NS(=O)(=O)c2ccc(Cl)s2)CCN1C(=O)C1(c2ccccc2)CCCC1 (stereo not drawn) | 10.7 µM
63 | COCCn1c(=NC(=O)c2cc(Cl)sc2Cl)sc2cc(S(N)(=O)=O)ccc21 | 7.51 µM
64 | CCNC(=O)NC(=O)C(C)OC(=O)c1oc2ccccc2c1CSC1CCCCC1 (stereo not drawn) | 5.51 µM
65 | O=C(COc1ccccc1)Nc1sc2c(c1C(=O)NCc1cccnc1)CCCC2 | 13.1 µM
66 | N#Cc1cccc(Oc2ccc(-c3cnc4ccccc4n3)cc2)c1C#N | 13.1 µM

Row | Compound | AC40
67 | Nc1nc(N)c2cc(Sc3ccc(Cl)cc3)ccc2n1 | 7.16 µM
68 | O=C(OCC12CC3CC(CC(C3)C1)C2)c1ccc(NCc2cc(O)ccc2O)cc1 | 14.9 µM
69 | COc1cc2cnc(-c3cccnc3)cc2cc1OC | 6.19 µM
70 | Cc1cc(OCCCN2CCC(C(O)(c3ccccc3)c3ccccc3)CC2)ccc1Br | 4.77 µM
71 | NC(N)=N/N=C/c1ccc(OCc2ccccc2)c(OCc2ccccc2)c1 | 10.2 µM
72 | CC(C)(C)c1cc(NCCCn2ccnc2)n2ncc(-c3ccc(Cl)cc3)c2n1 | 6.19 µM
73 | CCOc1ccccc1Nc1cc2n(c(=O)n1)CCc1cc(OC)c(OC)cc1-2 | 1.07 µM
74 | COc1ccc(C2CC(=O)Nc3sc(=N)c4c(N)c(C#N)c(N)nc4c32)cc1OC (stereo not drawn) | 6.1 µM
75 | COc1ccc(CCNS(=O)(=O)c2cccc(C)c2)cc1OC | 2.46 µM
76 | C/C=C/c1ccc(C2[C@@H]3CN(C(=O)Nc4ccc(C(F)(F)F)cc4)C[C@H]2N3)cc1 (stereo partly drawn) | 12.5 µM
77 | CC(C)Cn1c(=O)n(C)c(=O)c2[nH]cnc21 | 9.51 µM
78 | CCCCn1c(N2CCCC2)nc2c1c(=O)[nH]c(=O)n2C | 5.57 µM
79 | C=C(C)C1Cc2c(C)nn(-c3cccc4cccnc34)c2C1 (stereo not drawn) | 2.1 µM
80 | Cc1ccc2oc(-c3ccc(NC(=O)c4ccc5c(c4)OCO5)cc3)nc2c1 | 4.81 µM
81 | Cc1c(CC(=O)O)c(=O)oc2c(C)c(OCc3ccccc3Br)ccc12 | > 35 µM (inactive)
82 | Cc1ccc2oc(-c3cccc(NC(=O)Cc4cccs4)c3)nc2c1 | 5.62 µM
83 | CCOC(=O)Nc1cccc(OCC(=O)Nc2ccc3c(c2)CCC3)c1 | 7.83 µM
84 | COc1ccc(N2CCN(c3ccc(NC(=O)C4CCCCC4)cc3C#N)CC2)cc1 | 2.8 µM
85 | COc1ccc(-c2ccc3c(N)c(C(=O)c4ccc(OC)c(OC)c4)sc3n2)cc1 | 5.83 µM
86 | COc1cc(CN2C[C@@H]3N[C@H](C2)C3c2ccc(/C=C/c3ccccc3)cc2)cc(OC)c1 (stereo partly drawn) | 5.5 µM
87 | CCC(C)Sc1cccc(-c2nc3cnccn3c2NC2CCCCC2)c1 (stereo not drawn) | 5.37 µM
88 | CC(=O)N(/N=C/c1cccc(C)c1)c1nc(-c2ccc(Br)cc2)cs1 | 5.72 µM

Row | Compound | AC40
89 | O=S(=O)(Nc1ccc(-c2ccc3nncn3n2)cc1)c1ccccc1Cl | 15.2 µM
90 | COc1cc2c(cc1OC)-c1cc(Nc3ccc(N(C)C)cc3)nc(=O)n1CC2 | 5.31 µM
91 | COc1cc2nc(N3CCN(c4cc(C)ccc4C)CC3)nc(N)c2cc1OC | 8.44 µM
92 | CCc1ccc(-c2c(C)sc(NC(=O)C3CCC3)c2C#N)cc1 | 5.78 µM
93 | C=CCn1c(-c2csc(-c3ccc(OC)c(OC)c3)n2)n[nH]c1=S | 1.01 µM
94 | COc1cc(NC(=O)c2cccc(C)c2)ccc1NC(=O)c1cc2ccccc2o1 | 3.24 µM
95 | CCCCc1c(-c2ccccc2OC)ncn1CCc1ccccc1 | 16.7 µM
96 | Cc1cc2c(cc1C)CSC(c1c(O)ccc3ccccc13)SC2 | 10.9 µM
97 | CCOC(=O)c1cn(-c2ccccc2)nc1-c1ccncc1 | 10.5 µM
98 | Cc1ccc(C(C)C)c(OCCNCCc2ccccc2)c1 | 15 µM
99 | COc1cc2c(cc1OC)/C(=C/C(=O)c1ccc(NC(C)=O)cc1)NCC2 | 14.6 µM
100 | CN(C)CCOc1ccc(-c2c(-c3ccsc3)sc3ccccc23)cc1 | 10.9 µM
101 | CNc1nc(Cl)nc2c1ncn2-c1ccccc1 | 15.6 µM
102 | CCN=C1NC(c2ccc(C(F)(F)F)cc2)C(C(=O)OC)=C(C)N1Cc1cccc(C(F)(F)F)c1 (stereo not drawn) | 14.3 µM
103 | C=C[C@@]1(C)CC(=O)[C@]2(O)[C@@]3(C)[C@@H](O)CCC(C)(C)[C@@H]3[C@H](O)[C@H](OC(C)=O)[C@@]2(C)O1 | 0.0336 µM
104 | Cc1ccc(CC2(OCCN(C)C)CCC(C(C)(C)C)CC2)cc1 (stereo not drawn) | 13.9 µM
105 | COc1ccc(-c2ccc(C3[C@@H]4CN(Cc5cccc(OC)c5)C[C@H]3N4)cc2)cc1 (stereo partly drawn) | 2.47 µM
106 | O=C(NCC1OCCc2ccccc21)c1ccc(NC(=O)c2ccc(Cl)cc2)cc1 (stereo not drawn) | 5.18 µM
107 | Cc1c(C(=O)OCC(=O)N2CC(=O)Nc3ccccc32)oc2ccc(Br)cc12 | 4.76 µM
108 | CCn1nc(C(=O)Nc2ccc3nc(C)sc3c2)c2ccccc2c1=O | 25.1 µM
